According to patent US7553966B2, “Glucocorticoid mimetics, methods of making them, pharmaceutical compositions, and uses thereof” (Boehringer Ingelheim Pharmaceuticals, Inc., priority 2002, dated 2009):

Target: T1, human glucocorticoid receptor (GR) complex (Homo sapiens, UniProt P04150)
T1 construct: made in house; host or cells: insect expression system (baculovirus lysate)
T1 sequence (P04150 1-777): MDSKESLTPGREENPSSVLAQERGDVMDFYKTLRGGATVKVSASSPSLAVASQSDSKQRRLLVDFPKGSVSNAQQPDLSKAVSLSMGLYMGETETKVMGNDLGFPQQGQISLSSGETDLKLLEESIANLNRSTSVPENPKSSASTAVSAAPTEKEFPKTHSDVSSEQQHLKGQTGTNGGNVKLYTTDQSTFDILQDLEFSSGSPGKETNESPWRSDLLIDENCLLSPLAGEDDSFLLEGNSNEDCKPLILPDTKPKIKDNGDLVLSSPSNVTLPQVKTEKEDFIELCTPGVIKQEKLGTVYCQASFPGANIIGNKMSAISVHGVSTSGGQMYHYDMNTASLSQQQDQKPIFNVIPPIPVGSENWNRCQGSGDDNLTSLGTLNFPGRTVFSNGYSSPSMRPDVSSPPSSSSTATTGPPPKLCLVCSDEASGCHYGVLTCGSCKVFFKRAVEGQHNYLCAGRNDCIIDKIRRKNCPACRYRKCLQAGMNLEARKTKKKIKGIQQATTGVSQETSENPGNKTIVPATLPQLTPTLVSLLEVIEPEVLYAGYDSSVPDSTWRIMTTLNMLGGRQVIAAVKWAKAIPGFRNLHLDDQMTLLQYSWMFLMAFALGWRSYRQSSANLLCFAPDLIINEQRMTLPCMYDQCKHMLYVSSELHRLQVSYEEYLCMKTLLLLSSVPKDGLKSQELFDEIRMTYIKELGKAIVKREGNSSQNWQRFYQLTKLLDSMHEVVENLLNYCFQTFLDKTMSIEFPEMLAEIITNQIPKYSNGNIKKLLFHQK
Experiment: Glucocorticoid Receptor Competitive Binding Assay (fluorescence polarization, TAMRA-labeled dexamethasone probe)
Conditions: qualitative statement; competition with TAMRA-labeled dexamethasone
Method: Compounds of the invention were evaluated for binding to the steroid receptor by a fluorescence polarization competitive binding assay.
A. Glucocorticoid Receptor Competitive Binding Assay
Step 1. Characterization of the Fluorescent Probe
The wavelengths for maximum excitation and emission of the fluorescent probe should first be measured. An example of such a probe is rhodamine (TAMRA)-labeled dexamethasone.
The affinity of the probe for the steroid receptor was then determined in a titration experiment. The fluorescence polarization value of the probe in assay buffer was measured on an SLM-8100 fluorometer using the excitation and emission maximum values described above. Aliquots of expression vector lysate were added and fluorescence polarization was measured after each addition until no further change in polarization value was observed. Non-linear least squares regression analysis was used to calculate the dissociation constant of the probe from the polarization values obtained for lysate binding to the probe.
Step 2. Screening for Inhibitors of Probe Binding
This assay uses fluorescence polarization (FP) to quantitate the ability of test compounds to compete with tetramethyl rhodamine (TAMRA)-labeled dexamethasone for binding to a human glucocorticoid receptor (GR) complex prepared from an insect expression system. The assay buffer was: 10 mM TES, 50 mM KCl, 20 mM Na2MoO4. 2H2O, 1.5 mM EDTA, 0.04% w/v CHAPS, 10% v/v glycerol, 1 mM dithiothreitol, pH 7.4. Test compounds were dissolved to 1 mM in neat DMSO and then further diluted to 10× assay concentration in assay buffer supplemented with 10% v/v DMSO. Test compounds were serially diluted at 10× assay concentrations in 10% DMSO-containing buffer in 96-well polypropylene plates. […] Positive controls were reaction mixtures containing no test compound; negative controls (blanks) were reaction mixtures containing 0.7 μM to 2 μM dexamethasone. […] IC50 values were determined by iterative non-linear curve fitting of the FP signal data to a 4-parameter logistic equation.

| SMILES | activity in the GR binding assay |
| --- | --- |
| CC(C)(CC(O)(Cc1cc2cccc(F)c2[nH]1)C(F)(F)F)c1cccc2c1OCC2 (centres unmarked) [4-(2,3-Dihydrobenzofuran-7-yl)-1,1,1-trifluoro-2-(7-fluoro-1H-indol-2-ylmethyl)4-methylpentan-2-ol] | potent activity |
| COc1cccc(C(C)(C)CC(O)(Cc2cc3cc(C(F)(F)F)ccc3[nH]2)C(F)(F)F)c1 (centres unmarked) [1,1,1-Trifluoro-4-(3-methoxyphenyl)-4-methyl-2-(5-trifluoromethyl-1H-indol-2-ylmethyl)pentan-2-ol] | potent activity |
| CC(C)(CC(O)(Cc1cc2ccccc2[nH]1)C(F)(F)F)c1cccc(F)c1 (centres unmarked) [1,1,1-Trifluoro-4-(3-fluorophenyl)-2-(1H-indol-2-ylmethyl)-4-methylpentan-2-ol] | potent activity |
| COc1c(C(C)(C)CC(O)(Cc2cc3ccccc3[nH]2)C(F)(F)F)ccc2ccccc12 (centres unmarked) [1,1,1-Trifluoro-2-(1H-indol-2-ylmethyl)-4-(1-methoxynaphthalen-2-yl)-4-methylpentan-2-ol] | potent activity |
| CC(C)(CC(O)(Cn1cc(C#N)c2ccccc21)C(F)(F)F)c1cccc2c1OCC2 (centres unmarked) [1-[4-(2,3-Dihydrobenzofuran-7-yl)-2-hydroxy-4-methyl-2-trifluoromethylpentyl]-1H-indole-3-carbonitrile] | potent activity |
| Cc1ccc(C(C)(C)CC(O)(Cc2ccnc3ccccc23)C(F)(F)F)cc1 (centres unmarked) [1,1,1-Trifluoro-4-methyl-2-quinolin-4-ylmethyl-4-p-tolylpentan-2-ol] | potent activity |
| COc1ccc(F)cc1C(C)(C)CC(O)(Cc1nc2ccccc2[nH]1)C(C)(C)C (centres unmarked) [5-(5-Fluoro-2-methoxyphenyl)-3-(benzimidazol-2-ylmethyl)-2,2,5-trimethylhexan-3-ol] | potent activity |
| COc1ccc(F)cc1C(C)(C)CC(O)(Cc1ccnc(Br)c1)C(F)(F)F (centres unmarked) [1,1,1-Trifluoro-4-(5-fluoro-2-methoxyphenyl)-4-methyl-2-(2-bromopyridin-4-ylmethyl)pentan-2-ol] | potent activity |
| COc1ccc(F)cc1C(C)(C)CC(O)(Cc1ccnc(Cl)c1)C(F)(F)F (centres unmarked) [1,1,1-Trifluoro-4-(5-fluoro-2-methoxyphenyl)-4-methyl-2-(2-chloropyridin-4-ylmethyl)pentan-2-ol] | potent activity |
| CC(C)(CC(O)(Cc1cc2cc(C#N)ccc2[nH]1)C(F)(F)F)c1cccc(F)c1 (centres unmarked) [2-[4-(3-Fluorophenyl)-2-hydroxy-4-methyl-2-trifluoromethylpentyl]-1H-indole-5-carbonitrile] | potent activity |
| CCc1cccc(C(C)(C)CC(O)(Cc2ccnc3ccccc23)C(F)(F)F)c1OC (centres unmarked) [4-(3-Ethyl-2-methoxyphenyl)-1,1,1-trifluoro-4-methyl-2-quinolin-4-ylmethylpentan-2-ol] | potent activity |
| CC(C)(CC(O)(Cc1cc2ccncc2[nH]1)C(F)(F)F)c1ccc(F)cc1 (centres unmarked) [1,1,1-Trifluoro-4-(4-fluorophenyl)-4-methyl-2-(1H-pyrrolo[2,3-c]pyridin-2-ylmethyl)pentan-2-ol] | potent activity |
| CC(C)(CC(O)(Cc1cc2ccccc2[nH]1)C(F)(F)F)c1ccc(O)cc1 (centres unmarked) [4-[4,4,4-Trifluoro-3-hydroxy-3-(1H-indol-2-ylmethyl)-1,1-dimethylbutyl]phenol] | potent activity |
| CC(C)(CC(O)(Cc1[nH]c2ccccc2c1C#N)C(F)(F)F)c1ccccc1 (centres unmarked) [2-(2-Hydroxy-4-methyl-4-phenyl-2-trifluoromethylpentyl)-1H-indole-3-carbonitrile] | potent activity |
| CC(C)(CC(O)(Cc1cc(Cl)nc2ccccc12)C(F)(F)F)c1cc(F)ccc1O (centres unmarked) [1,1,1-Trifluoro-4-(5-fluoro-2-hydroxyphenyl)-4-methyl-2-(2-chloroquinolin-4-ylmethyl)pentan-2-ol] | potent activity |
| CC(C)(CC(O)(Cc1ccnc(Cl)c1)C(F)(F)F)c1cc(F)ccc1O (centres unmarked) [1,1,1-Trifluoro-4-(5-fluoro-2-hydroxyphenyl)-4-methyl-2-(2-chloropyridin-4-ylmethyl)pentan-2-ol] | potent activity |
| COc1ccc(F)cc1C(C)(C)CC(O)(Cc1nc2ccccc2[nH]1)C(F)(F)F (centres unmarked) [2-(1H-Benzimidazol-2-ylmethyl)-1,1,1-trifluoro-4-(5-fluoro-2-methoxyphenyl)-4-methylpentan-2-ol] | potent activity |
| CC(C)(CC(O)(Cc1cc2ccccc2[nH]1)C(F)(F)F)c1cc(C#N)cc2c1OCC2 (centres unmarked) [4-(2,3-dihydro-5-cyanobenzofuran-7-yl)-1,1,1-trifluoro-2-(1H-indol-2-ylmethyl)-4-methylpentan-2-ol] | potent activity |
| COc1ccc(F)cc1C(C)(C)CC(O)(Cc1nc2ccc(F)cc2[nH]1)C(F)(F)F (centres unmarked) [1,1,1-Trifluoro-2-(6-fluoro-1H-benzoimidazol-2-ylmethyl)-4-(5-fluoro-2-methoxyphenyl)-4-methylpentan-2-ol] | potent activity |
| CC(C)(CC(O)(Cc1cc2cccc(F)c2[nH]1)C(F)(F)F)c1ccc(F)cc1O (centres unmarked) [5-Fluoro-2-[4,4,4-trifluoro-3-(7-fluoro-1H-indol-2-ylmethyl)-3-hydroxy-1,1-dimethylbutyl]phenol] | potent activity |
| COc1ccc(F)cc1C(C)(C)CC(O)(CF)Cc1cc2ccccc2[nH]1 (centres unmarked) [4-(5-Fluoro-2-methoxyphenyl)-2-fluoromethyl-1-(1H-indol-2-yl)-4-methylpentan-2-ol] | potent activity |
| COc1ccc(F)cc1C(C)(C)CC(O)(Cc1nc2cccc(C)c2[nH]1)C(F)(F)F (centres unmarked) [1,1,1-Trifluoro-4-(5-fluoro-2-methoxyphenyl)-4-methyl-2-(7-methyl-1H-benzoimidazol-2-ylmethyl)pentan-2-ol] | potent activity |
| Cc1ccc(C(C)(C)CC(O)(Cc2cc3ccccc3[nH]2)C(F)(F)F)cc1 (centres unmarked) [1,1,1-Trifluoro-2-(1H-indol-2-ylmethyl)-4-methyl-4-p-tolylpentan-2-ol] | potent activity |
| CC(C)(CC(O)(Cc1cc2ccncc2[nH]1)C(F)(F)F)c1cccc(F)c1 (centres unmarked) [1,1,1-Trifluoro-4-(3-fluorophenyl)-4-methyl-2-(1H-pyrrolo[2,3-c]pyridin-2-ylmethyl)pentan-2-ol] | potent activity |
| CC(C)(CC(O)(Cc1cc(Cl)nc(Cl)c1)C(F)(F)F)c1cc(F)ccc1O (centres unmarked) [2-[3-(2,6-Dichloropyridin-4-ylmethyl)-4,4,4-trifluoro-3-hydroxy-1,1-dimethylbutyl]-4-fluorophenol] | potent activity |
| COC(=O)c1ccc2[nH]c(CC(O)(CC(C)(C)c3cc(Br)ccc3OC)C(F)(F)F)cc2c1 (centres unmarked) [2-[4-(5-Bromo-2-methoxyphenyl)-2-hydroxy-4-methyl-2-trifluoromethylpentyl]-1H-indole-5-carboxylic acid methyl ester] | potent activity |
| COc1ccc(F)cc1C(C)(C)CC(O)(Cc1cc2cccnc2[nH]1)C(F)(F)F (centres unmarked) [1,1,1-Trifluoro-4-(5-fluoro-2-methoxyphenyl)-4-methyl-2-(1H-pyrrolo[2,3-b]pyridin-2-ylmethyl)pentan-2-ol] | potent activity |
| CC(C)(CC(O)(Cc1cc2ccccc2[nH]1)C(F)(F)F)c1ccc2c(c1)CCO2 (centres unmarked) [4-(2,3-Dihydrobenzofuran-5-yl)-1,1,1-trifluoro-2-(1H-indol-2-ylmethyl)-4-methylpentan-2-ol] | potent activity |
| CC(C)(CC(O)(Cc1cc2ccccc2[nH]1)C(F)(F)F)c1cccc(O)c1 (centres unmarked) [3-[4,4,4-Trifluoro-3-hydroxy-3-(1H-indol-2-ylmethyl)-1,1-dimethylbutyl]phenol] | potent activity |
